Experimental data as given in paper PMC3988029, “A Trisubstituted Benzimidazole Cell Division Inhibitor with Efficacy against Mycobacterium tuberculosis” (PLoS ONE, 2014).
In brackets after ≈: the same amount, converted by molar mass. Several values for one entry are separate records, joined by “and”; a condition that tells them apart may be missing. Equal entries are not always repeated. Entries after “also recorded” stand apart in the source; their conditions may differ. Where two headings read alike, the source gives them in different places.

Assays:
M. tuberculosis H37Rv [1] = details: lead selection from SAR studies; cited from earlier work
[2] = 5 µM, 1 mg/mL microsomal protein, NADPH, 20 min
Protocol: (§1) The flavin-containing monooxygenases (FMO)-dependent reactions were run in the presence of bovine serum albumin (BSA, 0.1%) for the duration of 0 and 20 min (with or without microsomal proteins and/or cofactors). […] Following protein precipitation with acetonitrile and their removal by centrifugation, supernatant fluids were analyzed by LC/MS-MS.
(§2) Thermo Finnigan TSQ Quantum Ultra instrument, ESI positive ion ionization mode. Each compound is studied in duplicates. Results are expressed in percentage of lability (or total metabolism).
(§3) Total metabolism = [1– (UC1 Peak Area)/(UC2 Peak Area)] × 100.
(§4) UCn = Unchanged Compound in condition n;
(§5) n = 1: incubation in the presence of NADPH cofactor after T = 20 min.
(§6) n = 2: incubation without cofactor at T = 0 min.

[3] = 5 µM, 1 mg/mL microsomal protein, NADPH, 20 min; remark: listed apart in the source
Protocol: as §1, §2, §3, §4, §5, §6

[4] = test system: M. tuberculosis strain Erdman; assay: Modified rapid (acute) murine model of infection; format: in vivo, Mycobacterium tuberculosis
[5] = test system: M. tuberculosis clinical isolates; details: determined and reported; cited from earlier work
[6] = 100 ng/mL
Protocol: (§7) Blood was collected from animals using lithium heparin as anticoagulant, in the Animal Research & Welfare Domain at Disposition, Safety & Animal Research Montpellier (371 rue du Pr. J. Blayac, 34184 Montpellier Cedex 04, France) or vendors such as Charles River. Human plasma using lithium heparin as anticoagulant was provided by the EFS (Etablissement Français du Sang) of Montpellier, France. Plasma was spiked with the compound in order to obtain a final drug concentration of 100 ng/mL (expressed as non-salified compound). The spiked plasma (dedicated to C1h and C4h) was then incubated at 37°C for 1 h and 4 h. Plasma samples were analyzed by LC-MS/MS following protein precipitation. The limit of quantification for compounds was 10 ng/mL. Chromatographic conditions for LC analysis: 10 µL of the sample was injected to Luna Phenomenex C8 (50 mm×2.0 mm, 3 µm), Solvent A: ammonium acetate (0.15 g)/formic acid (2 mL)/HPLC water up to 1000 mL. […] MS/MS condition used for detection: Finnigan TSQ Quantum disco instrument, Excalibur version 2.0 acquisition system, ESI positive ion ionization mode. The mean percent of difference between C1h or C4h and C0 concentrations was calculated.
M%D (%) = 100 × [(C1h or C4h)–C0]/C0
(§8) The compounds were considered as stable if the mean percent of difference between C4h and C0 concentrations was less than 20%.

M. tuberculosis NHN20 = assay: Microplate Alamar Blue assay (MABA) MIC; format: cell-based; details: Mycobacterium tuberculosis
M. tuberculosis W210 = assay: Microplate Alamar Blue assay (MABA) MIC; format: cell-based; details: Mycobacterium tuberculosis
M. tuberculosis H37Rv [7] = assay: Time-dose growth (OD600 nm) and kill (CFU) curves; format: cell-based, Mycobacterium tuberculosis
Mtb FtsZ [8] = biological target: T1, Mtb FtsZ (Mycobacterium tuberculosis, UniProt P9WN95); assay: Transmission electron microscopy of FtsZ polymerization; format: biochemical, M. tuberculosis; details: FtsZ 5 µM, GTP 25 µM
T1 sequence (P9WN95 whole entry, looked up): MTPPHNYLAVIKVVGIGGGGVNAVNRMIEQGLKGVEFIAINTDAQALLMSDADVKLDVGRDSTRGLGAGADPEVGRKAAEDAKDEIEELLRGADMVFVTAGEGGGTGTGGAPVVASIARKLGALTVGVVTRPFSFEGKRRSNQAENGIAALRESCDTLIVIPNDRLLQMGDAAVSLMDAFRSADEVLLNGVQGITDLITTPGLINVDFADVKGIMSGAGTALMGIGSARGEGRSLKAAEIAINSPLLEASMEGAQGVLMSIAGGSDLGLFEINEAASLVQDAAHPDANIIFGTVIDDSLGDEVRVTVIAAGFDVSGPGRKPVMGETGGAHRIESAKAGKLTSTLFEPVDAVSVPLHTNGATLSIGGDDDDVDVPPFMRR

M. tuberculosis TN587 = assay: Microplate Alamar Blue assay (MABA) MIC; format: cell-based; details: Mycobacterium tuberculosis
[9] = 100 ng/mL; remark: listed apart in the source
Protocol: as §7
M%D (%) = 100 × [(C1h or C4h)–C0]/C0
as §8

M. tuberculosis H37Rv [10] = assay: Microplate Alamar Blue assay (MABA) MIC; format: cell-based; details: Mycobacterium tuberculosis
M. tuberculosis NHN382 = assay: Microplate Alamar Blue assay (MABA) MIC; format: cell-based; details: Mycobacterium tuberculosis
Mtb FtsZ [11] = biological target: T1, Mtb FtsZ; details: earlier work of the authors; no reference given; cited from earlier work

## CCCCOC(=O)Nc1cc2nc(C3CCCCC3)[nH]c2cc1N(C)C [SB-P17G-C2]
M. tuberculosis H37Rv [1]
  MIC: 0.06 µg/mL (≈ 0.167 µM)
[2]
  Liver Microsome Lability Mouse: 96%
[3]
  Liver Microsome Lability Human: 90%
[4]; acute mouse model, data not shown
  Reduction in the bacterial load in the lungs or spleen: no significant reduction; also recorded: did not significantly reduce the bacterial load in the lungs or spleen
[5]
  MIC values against clinical isolates: 0.06 to 0.13 µg/mL
[6]
  Plasma Stability (% hydrolysis) Human (4 h): 6.1%

## CN(C)c1cc2[nH]c(C3CCCCC3)nc2cc1NC(=O)c1ccc(OC(F)(F)F)cc1 [SB-P17G-A20]
M. tuberculosis H37Rv [1]
  MIC: 0.16 µg/mL (≈ 0.358 µM)
[2]
  Liver Microsome Lability Mouse: 45%
M. tuberculosis NHN20
  MIC: 0.16 µg/mL (≈ 0.358 µM)
M. tuberculosis W210
  MIC: 0.16 µg/mL (≈ 0.358 µM)
[3]
  Liver Microsome Lability Human: 39%
[4]; C57BL/6-Ifngtm1ts mice, 50 mg/kg IP bid, days 5 to 14 post-infection, vs infected controls
  Reduction in the bacterial load in the lungs: 1.73±0.24 log10 CFU
[4]; C57BL/6-Ifngtm1ts mice, 50 mg/kg IP bid, days 5 to 14 post-infection, vs infected controls, 50 mg/kg
  Reduction in the bacterial load in the spleen: 2.68 log10 CFU and 2.68±0.48 log10 CFU
M. tuberculosis H37Rv [7]; CFU plating, day 0, 2, 4, 6
  Concentration that steadily reduced bacterial viability: 0.08 µg/mL
M. tuberculosis H37Rv [7]; growth curves at various concentrations
  Killing characteristics: concentration-dependent inhibitor with sub-MIC inhibitory characteristics
M. tuberculosis H37Rv [7]; in some cases
  Lowest concentration at which bacterial growth was reduced: 0.125 X MIC
Mtb FtsZ [8]; 40 µM compound
  Effect on FtsZ polymers (TEM): the length, density and aggregation was visibly reduced
Mtb FtsZ [8]; 80 µM compound
  Effect on FtsZ polymers (TEM): dispersed FtsZ polymers are observed
[6]
  Plasma Stability (% hydrolysis) Human (4 h): 0.1%
M. tuberculosis TN587
  MIC: 0.16 µg/mL (≈ 0.358 µM)
[9]
  Plasma Stability (% hydrolysis) Mouse (4 h): 24.4%
M. tuberculosis H37Rv [10]
  MIC: 0.16 µg/mL (≈ 0.358 µM)
M. tuberculosis NHN382
  MIC: 0.16 µg/mL (≈ 0.358 µM)

## NNC(=O)c1ccncc1 [INH, isoniazid, reference compound]
[4]; IP 20 mg/kg qd, control drug
  CFU counts in the lung and spleen: below the level of detection

## CCCCOC(=O)Nc1cc2nc(C3CCCCC3)[nH]c2cc1N(CC)CC [SB-P3G2]
Mtb FtsZ [11]
  Inhibition of FtsZ polymerization: inhibit FtsZ polymerization in a dose dependent manner
